Key:
Assay type in all cases: cell-based
α-synuclein aggregate [1] = test: Test 2: suppressing the accumulation of α-synuclein aggregate in neurospheroid from PLA2G6 mutant human iPS cells; conditions: compound added day 4, measured day 9, DMSO = 100%; for activity at 0.1 µM: 100 nM, read-out: Amount of aggregate (%) 100 nM; for activity at 1 µM: 1000 nM, read-out: Amount of aggregate (%) 1000 nM
Experimental: Test 2: Evaluation of Suppressing the Accumulation of α-Synuclein Aggregate with Neurospheroid Prepared from Human iPS Cells with a Mutation in PLA2G6 Gene
(§1) (1) Induction of Differentiation from Human iPS Cell to Neural Cell
(§2) Neural stem cells were induced from PLA2G6 gene mutant iPS cells with PSC Neuronal Induction Medium (Thermo Fisher Scientific Inc., cat #A1647801). Neurospheroid was prepared from the induced neural stem cells by three-dimensional culture system, and preserved with BrainPhys Neuronal Medium (STEMCELL Technologies, cat #ST-05793) comprising NeuroCult SM1 Neuronal Supplement, N2 Supplement-A, 20 ng/mL BDNF, 20 ng/mL GDNF, 1 mM dibutyryl cAMP, and 200 nM ascorbic acid. Half of the culture medium was replaced on day 2 and day 4 after the induction of differentiation.
The test compound was diluted with the culture medium so as to be twice the final concentration, and an equal volume of the twice-concentrated solution was added to each well when half of the culture medium was replaced on day 4 after induction of differentiation.
(§3) (2) Evaluation of the Amount of α-Synuclein Aggregate
(§4) From the neurospheroid 9 days after the induction of differentiation, proteins were extracted with a TBS solution containing 1% TritionX-100, and the extracted proteins were subjected to a protein analysis with Simple Western system (Protein Simple, Inc., cat #SM-W008) using an α-synuclein antibody (Thermo Fisher Scientific Inc., cat #AHB0261) to measure the amount of the α-synuclein aggregate.
Assuming that the amount of the aggregate in the neurospheroid added with a DMSO solution is 100%, the amount of the aggregate in the neurospheroid added with each test compound was evaluated.

α-synuclein aggregate [2] = test: Test 5: suppressing the accumulation of α-synuclein aggregate in dopamine neurospheroid from PLA2G6 mutant human iPS cells; conditions: compound added day 21, measured day 26, DMSO = 100%
Experimental: Test 5: Evaluation of Suppressing the Accumulation of α-Synuclein Aggregate with Dopamine Neurospheroid Prepared From Human iPS Cells with a Mutation in PLA2G6 Gene
as §1
as §2, with “Dopaminergic progenitor” for “Neural stem”, “dopaminergic neuron differentiation kit” for “PSC Neuronal Induction Medium”, “#A3147701). Dopamine neurospheroid” for “#A1647801). Neurospheroid”, “dopaminergic progenitor” for “neural stem”, “every 3 or” for “on day 2 and day”, “4 days” for “4”
The test compound was diluted with the culture medium so as to be twice the final concentration, and an equal volume of the twice-concentrated solution was added to each well when half of the culture medium was replaced on day 21 after induction of differentiation.
as §3
as §4, with “From the dopamine neurospheroid 26” for “From the neurospheroid 9”, “dopamine neurospheroid 26 days after” for “the neurospheroid 9 days after”
(§5) The amount of the aggregate in the neurospheroid added with each test compound was measured. Assuming that the amount of the aggregate in the neurospheroid added with a DMSO solution is 100%, the amount of the aggregate in the test samples was evaluated.

α-synuclein aggregate [3] = test: Test 11: reducing the accumulation of α-synuclein aggregate in dopamine neurospheroid from GBA1 mutant human iPS cells; conditions: compound added day 40, measured day 44, DMSO = 100%
Experimental: Test 11: Evaluation of Reducing the Accumulation of α-Synuclein Aggregate with Dopamine Neurospheroid Prepared From Human iPS Cells with a Mutation in GBA1 Gene
as §1
Dopaminergic progenitor cells were induced from GBA1 gene mutant iPS cells with dopaminergic neuron differentiation kit (Thermo Fisher Scientific Inc., cat #A3147701). Dopamine neurospheroid was prepared from the induced dopaminergic progenitor cells by three-dimensional culture system, and preserved with BrainPhys Neuronal Medium (STEMCELL Technologies, cat #ST-05793) comprising NeuroCult SM1 Neuronal Supplement, N2 Supplement-A, 20 ng/mL BDNF, 20 ng/mL GDNF, 1 mM dibutyryl cAMP, and 200 nM ascorbic acid. Half of the culture medium was replaced every 3 or 4 days.
The test compound was diluted with the culture medium so as to be twice the final concentration, and an equal volume of the twice-concentrated solution was added to each well when half of the culture medium was replaced on day 40 after induction of differentiation.
as §3
as §4, with “From the dopamine neurospheroid 44” for “From the neurospheroid 9”, “dopamine neurospheroid 44 days after” for “the neurospheroid 9 days after”
as §5

α-synuclein aggregate [4] = test: Test 3: reducing the accumulation of α-synuclein aggregate in neurospheroid from PLA2G6 mutant human iPS cells; conditions: compound added day 10, measured day 15, DMSO = 100%
Experimental: Test 3: Evaluation of Reducing the Accumulation of α-Synuclein Aggregate with Neurospheroid Prepared from Human iPS Cells with a Mutation in PLA2G6 Gene
as §1
Neural stem cells were induced from PLA2G6 gene mutant iPS cells with PSC Neuronal Induction Medium (Thermo Fisher Scientific Inc., cat #A1647801). Neurospheroid was prepared from the induced neural stem cells by three-dimensional culture system, and preserved with BrainPhys Neuronal Medium (STEMCELL Technologies, cat #ST-05793) comprising NeuroCult SM1 Neuronal Supplement, N2 Supplement-A, 20 ng/mL BDNF, 20 ng/mL GDNF, 1 mM dibutyryl cAMP, and 200 nM ascorbic acid. Half of the culture medium was replaced every 3 or 4 days after the induction of differentiation.
The test compound was diluted with the culture medium so as to be twice the final concentration, and an equal volume of the twice-concentrated solution was added to each well when half of the culture medium was replaced on day 10 after induction of differentiation.
as §3
as §4, with “15” for “9”
as §5

CCC1(C(=O)/N=c2\ccccn2C)COC1 [Example 1, 3-Ethyl-N-[(2E)-1-methylpyridin-2(1H)-ylidene]oxetane-3-carboxamide]
activity at 0.1 µM (α-synuclein aggregate [1]): 20%
activity at 1 µM (α-synuclein aggregate [1]): 21%
Amount of aggregate (%) 100 nM (α-synuclein aggregate [2]): 9%
Amount of aggregate (%) 1000 nM (α-synuclein aggregate [2]): 13%
Amount of aggregate (%) 100 nM (α-synuclein aggregate [3]): 12%
Amount of aggregate (%) 1000 nM (α-synuclein aggregate [3]): 19%
Amount of aggregate (%) 100 nM (α-synuclein aggregate [4]): 23%
Amount of aggregate (%) 1000 nM (α-synuclein aggregate [4]): 18%

Cn1cccc/c1=N\C(=O)C1(C)COC1 [Example 2, 3-methyl-N-[(2E)-1-methylpyridin-2(1H)-ylidene]oxetane-3-carboxamide]
activity at 0.1 µM (α-synuclein aggregate [1]): 31%
activity at 1 µM (α-synuclein aggregate [1]): 38%
Amount of aggregate (%) 100 nM (α-synuclein aggregate [2]): 24%
Amount of aggregate (%) 1000 nM (α-synuclein aggregate [2]): 3%
Amount of aggregate (%) 100 nM (α-synuclein aggregate [3]): 42%
Amount of aggregate (%) 1000 nM (α-synuclein aggregate [3]): 37%
Amount of aggregate (%) 100 nM (α-synuclein aggregate [4]): 36%
Amount of aggregate (%) 1000 nM (α-synuclein aggregate [4]): 35%

CCn1cccc/c1=N\C(=O)C1(C)COC1 [Example 3, N-[(2E)-1-ethylpyridin-2(1H)-ylidene]-3-methyloxetane-3-carboxamide]
activity at 0.1 µM (α-synuclein aggregate [1]): 35%
activity at 1 µM (α-synuclein aggregate [1]): 74%
Amount of aggregate (%) 100 nM (α-synuclein aggregate [2]): 28%
Amount of aggregate (%) 1000 nM (α-synuclein aggregate [2]): 78%
Amount of aggregate (%) 100 nM (α-synuclein aggregate [3]): 44%
Amount of aggregate (%) 1000 nM (α-synuclein aggregate [3]): 39%
Amount of aggregate (%) 100 nM (α-synuclein aggregate [4]): 19%
Amount of aggregate (%) 1000 nM (α-synuclein aggregate [4]): 70%

CCC1(C(=O)/N=c2\cc(OC)ccn2C)COC1 [Example 9, 3-ethyl-N-[(2E)-4-methoxy-1-methylpyridin-2(1H)-ylidene]oxetane-3-carboxamide]
activity at 0.1 µM (α-synuclein aggregate [1]): 4%
activity at 1 µM (α-synuclein aggregate [1]): 3%
Amount of aggregate (%) 100 nM (α-synuclein aggregate [2]): 5%
Amount of aggregate (%) 1000 nM (α-synuclein aggregate [2]): 28%
Amount of aggregate (%) 100 nM (α-synuclein aggregate [4]): 52%
Amount of aggregate (%) 1000 nM (α-synuclein aggregate [4]): 37%

CCC1(C(=O)/N=c2\ccc(F)cn2C)COC1 [Example 31, 3-ethyl-N-[(2E)-5-fluoro-1-methylpyridin-2(1H)-ylidene]oxetane-3-carboxamide]
activity at 0.1 µM (α-synuclein aggregate [1]): 25%
activity at 1 µM (α-synuclein aggregate [1]): 53%
Amount of aggregate (%) 100 nM (α-synuclein aggregate [2]): 13%
Amount of aggregate (%) 1000 nM (α-synuclein aggregate [2]): 12%
Amount of aggregate (%) 100 nM (α-synuclein aggregate [4]): 23%
Amount of aggregate (%) 1000 nM (α-synuclein aggregate [4]): 19%

COc1ccn(C)/c(=N/C(=O)C2(C)CN(C)C2)c1 [Example 51, N-[(2E)-4-methoxy-1-methylpyridin-2(1H)-ylidene]-1,3-dimethylazetidine-3-carboxamide]
activity at 0.1 µM (α-synuclein aggregate [1]): 4%
activity at 1 µM (α-synuclein aggregate [1]): 9%
Amount of aggregate (%) 100 nM (α-synuclein aggregate [2]): 27%
Amount of aggregate (%) 1000 nM (α-synuclein aggregate [2]): 31%
Amount of aggregate (%) 100 nM (α-synuclein aggregate [3]): 16%
Amount of aggregate (%) 1000 nM (α-synuclein aggregate [3]): 30%
Amount of aggregate (%) 100 nM (α-synuclein aggregate [4]): 12%
Amount of aggregate (%) 1000 nM (α-synuclein aggregate [4]): 10%

COc1c/c(=N\C(=O)C2(C)CN(C)C2)n(C)cc1Cl [Example 60, N-[(2E)-5-chloro-4-methoxy-1-methylpyridin-2(1H)-ylidene]-1,3-dimethylazetidine-3-carboxamide]
activity at 0.1 µM (α-synuclein aggregate [1]): 44%
activity at 1 µM (α-synuclein aggregate [1]): 15%
Amount of aggregate (%) 100 nM (α-synuclein aggregate [2]): 21%
Amount of aggregate (%) 1000 nM (α-synuclein aggregate [2]): 15%
Amount of aggregate (%) 100 nM (α-synuclein aggregate [4]): 9%
Amount of aggregate (%) 1000 nM (α-synuclein aggregate [4]): 9%

Cn1cccc/c1=N\C(=O)N1CCOC(C)(C)C1 [Example 75, 2,2-Dimethyl-N-[(2E)-1-methylpyridin-2(1H)-ylidene]morpholine-4-carboxamide]
activity at 0.1 µM (α-synuclein aggregate [1]): 49%
activity at 1 µM (α-synuclein aggregate [1]): 63%

Cn1cccc/c1=N\C(=O)N1C[C@H]2CC[C@@H](C1)O2 [Example 76]
activity at 0.1 µM (α-synuclein aggregate [1]): 44%
activity at 1 µM (α-synuclein aggregate [1]): 67%
